Results as given in patent US6475531B1, “Safe botanical drug for treatment and prevention of influenza and increasing immune function” (priority 2001, dated 2002).
≈ marks a conversion by molar mass, not a printed value.

Columns and labels:
Type in all cases: cell-based, influenza A viruses
[1] = test system: A/Brazil/11/78 (H1N1); assay: Plaque inhibition assay in MDCK cells; details: Influenza A virus
[2] = test system: A/Beijing/32/92 (H3N2); assay: Plaque inhibition assay in MDCK cells; details: Influenza A virus
[3] = test system: A/Singapore/1/75 (H2N2); assay: microbe, parasite or virus in culture; details: Influenza A virus, H2N2, MDCK
[4] = test system: A/England/939/69; assay: Plaque inhibition assay in MDCK cells; details: Influenza A virus

| Compound | IC50 [1] [mg/L] | IC50 [2] [mg/L] | IC50 [3] [mg/L] | IC50 [4] [mg/L] |
| --- | --- | --- | --- | --- |
| NC12CC3CC(CC(C3)C1)C2 [Amantadine] | 38 (≈ 251 µM) | 25 (≈ 165 µM) | 11 (≈ 72.7 µM) | 21 (≈ 139 µM) |
| NC(=O)c1ncn([C@@H]2O[C@H](CO)[C@@H](O)[C@H]2O)n1 [Ribavirin] | 56 (≈ 229 µM) | 90 (≈ 369 µM) | 82 (≈ 336 µM) | 46 (≈ 188 µM) |
